# Test system: bladder cancer
# Details: bladder cancer subject on chemotherapy
compound,measurement,setting,value
C=C(C)[C@H]1CC=C(C)CC1 [d-limonene],reduction of tumor size at subsequent surgical procedure,"earlier tumors 3 cm to 5 cm, then millimeter-sized",about 10 foled
same,tumor morphology at subsequent surgical procedure,tumors still present,ill-defined and amorphous

# Reference: patent publication US20240216319A1, “TUMOR SUPPRESSANT AND PAIN RELIEF COMPOSITION FOR ORAL ADMINISTRATION” (priority 2022, published 2024)
